In brackets after ≈: the same amount, converted by molar mass. Read-outs that look alike come from different tables or passages of the source.
Tests used:
[1] = test system: Escherichia coli; experiment: Broth microdilution MIC (Example 12)
[2] = test system: Neisseria gonorrhoeae; experiment: Agar dilution MIC (Example 11); assay type: cell-based
[3] = test system: anaerobes; experiment: Agar dilution MIC (Example 11); assay type: cell-based; details: read-out: MIC values
[4] = test system: C. parapsilosis; experiment: Broth microdilution MIC, yeast (Example 11); assay type: cell-based
[5] = test system: C. glabrata; experiment: Broth microdilution MIC, yeast (Example 11); assay type: cell-based; details: Nakaseomyces glabratus, FLU^R
[6] = test system: C. tropicalis; experiment: Broth microdilution MIC, yeast (Example 11); assay type: cell-based; details: Candida tropicalis, FLU^R
[7] = test system: Candida albicans; experiment: Broth microdilution antifungal susceptibility (Example 13); assay type: cell-based; details: Candida albicans
[8] = test system: Candida glabrata; experiment: as above; assay type: cell-based; details: Nakaseomyces glabratus
[9] = test system: Enterobacteriaceae; experiment: Broth microdilution MIC (Example 11); details: Escherichia coli, read-out: MIC values
[10] = test system: Acinetobacter baumannii; experiment: Broth microdilution MIC (Example 11); details: Acinetobacter baumannii
[11] = test system: P. aeruginosa; experiment: MIC against CF bacterial strains (Example 5); details: Pseudomonas aeruginosa
[12] = test system: Achromobacter spp.; experiment: MIC against CF bacterial strains (Example 5)
[13] = test system: E. coli ATCC 25922; details: control strain ATCC 25922; per CLSI M100-S24 or provided by Microbion; cited from earlier work
[14] = test system: P. aeruginosa; details: P. aeruginosa isolate 103; CLSI QC range shown in parenthesis; cited from earlier work
[15] = Particle size distribution of exposure aerosols (In-Tox Mercer Impactor); details: rat efficacy study exposure atmospheres
[16] = A. baumannii MMX 2592, MDR, Lev^R, Cip^R, MEM^R, CAZ^R, Gm^R
[17] = A. baumannii MMX 2593, MDR, Lev^R, Cip^R, MEM^R, CAZ^R, Gm^R
[18] = A. baumannii MMX 3372, MDR, Cip^R, MEM^I, CAZ^I
[19] = A. baumannii MMX 3373, Sensitive
[20] = NCTC13304, A. baumannii MMX 4651 (NCTC 13304), MDR, OXA-27, Lev^R, Cip^R, MEM^R, CAZ^R, Gm^I

With `C[C@@H](O)[C@H]1C(=O)N2C(C(=O)O)=C(S[C@@H]3CN[C@H](C(=O)N(C)C)C3)[C@H](C)[C@H]12` [MEM] the MIC ([1]; E. coli ATCC 35218, ESBL) was ≤0.008 µg/mL, the MIC ([1]; E. coli ATCC BAA-2471, NDM) was >8 µg/mL and the MIC ([1]; E. coli CDC 114, ESBL/KPC) was 2 µg/mL (≈ 5.22 µM). The MIC ([1]; E. coli CDC 118, ESBL/NDM) was 0.06 µg/mL (≈ 0.156 µM), the MIC ([1]; E. coli CDC 435, NDM) was >8 µg/mL and the MIC ([1]; E. coli CDC 451, KPC) was 1 µg/mL (≈ 2.61 µM). The MIC ([1]; E. coli CDC 503, ESBL/NDM) was 8 µg/mL (≈ 20.9 µM), the MIC ([1]; E. coli MMX 5745, KPC) was 2 µg/mL (≈ 5.22 µM) and the MIC ([1]; E. coli MMX 5755, ESBL) was 0.015 µg/mL (≈ 0.0391 µM). The MIC ([1]; E. coli MMX 5756, ESBL) was ≤0.008 µg/mL and the MIC ([1]; E. coli MMX 5758, ESBL) was ≤0.008 µg/mL.
`CC(S)C(C)S.[Bi]` (centres unmarked) [BisBDT, bismuth-2,3-butanedithiol] showed an MIC ([2]; ATCC49226, N. gonorrhoeae MMX 683 (ATCC 49226), QC) of 0.06 µg/mL, an MIC ([2]; N. gonorrhoeae MMX 6757, CTX NS) of 0.06 µg/mL and an MIC ([2]; N. gonorrhoeae MMX 6791, CIP^R) of 0.12 µg/mL. The MIC ([2]; N. gonorrhoeae MMX 6792, CIP^R) was 0.12 µg/mL, the MIC ([2]; N. gonorrhoeae MMX 6793, CIP^R) was 0.25 µg/mL and the MIC ([2]; read-out: MIC values, QC isolate, ciprofloxacin-resistant, ceftriaxone non-susceptible isolates) was 0.06 to 0.25 µg/mL. For the same compound, the MIC [3] was 1 to 4 µg/mL, the MIC ([4]; C. parapsilosis MMX 7555, FLU^R, 24 hr) was 0.25 µg/mL and the MIC ([4]; C. parapsilosis MMX 7555, FLU^R, 48 hr) was 0.5 µg/mL. The MIC ([4]; Lodderomyces parapsilosis, 24 h) was 0.25 µg/mL, the MIC ([4]; Lodderomyces parapsilosis, 48 h) was 0.5 µg/mL and the MIC ([4]; Lodderomyces parapsilosis, ATCC22019, 24 h) was 0.5 µg/mL. It also gave an MIC ([4]; Lodderomyces parapsilosis, ATCC22019, 48 h) of 1 µg/mL, an MIC ([5]; 24 h, C. glabrata MMX 7086) of 0.5 µg/mL and an MIC ([5]; 24 h, C. glabrata MMX 7318) of 0.25 µg/mL. The MIC ([5]; 48 h, C. glabrata MMX 7086) was 1 µg/mL, the MIC ([5]; 48 h, C. glabrata MMX 7318) was 0.5 µg/mL and the MIC ([6]; 24 h, C. tropicalis MMX 7247) was 4 µg/mL. For the same compound, the MIC ([6]; 24 h, C. tropicalis MMX 7248) was 4 µg/mL, the MIC ([6]; 24 h, C. tropicalis MMX 7360) was 2 µg/mL and the MIC ([6]; 48 h, C. tropicalis MMX 7247) was 4 µg/mL. The MIC ([6]; 48 h, C. tropicalis MMX 7248) was 8 µg/mL, the MIC ([6]; 48 h, C. tropicalis MMX 7360) was 2 µg/mL and the MIC ([7]; 24 h, read-out: MIC0 (complete inhibition), isolate MMX 7053 (Susceptible), 24 hr) was 1 µg/mL. For the same compound, the MIC ([7]; 24 h, read-out: MIC0 (complete inhibition), isolate MMX 7067 (FLU-R, VORI-R), 24 hr) was 1 µg/mL, the MIC ([7]; 24 h, read-out: MIC0 (complete inhibition), isolate MMX 7430 (Susceptible), 24 hr) was 0.5 µg/mL and the MIC ([7]; 24 h, read-out: MIC0 (complete inhibition), isolate MMX 7437 (FLU-I), 24 hr) was 2 µg/mL. For the same compound, the MIC ([7]; 24 h, read-out: MIC0 (complete inhibition), isolate MMX 7445 (FLU-R, VORI-R), 24 hr) was 2 µg/mL, the MIC ([7]; 24 h, read-out: MIC2 (50% inhibition)) was 1 µg/mL and the MIC ([7]; 24 h, read-out: MIC2 (50% inhibition), isolate ATCC MYA-2732 (FLU-R, VORI-I), 24 hr) was 1 µg/mL. The MIC ([7]; 24 h, read-out: MIC2 (50% inhibition), isolate MMX 7053 (Susceptible), 24 hr) was 0.5 µg/mL, the MIC ([7]; 24 h, read-out: MIC2 (50% inhibition), isolate MMX 7067 (FLU-R, VORI-R), 24 hr) was 0.5 µg/mL and the MIC ([7]; 24 h, read-out: MIC2 (50% inhibition), isolate MMX 7403 (Susceptible), 24 hr) was 0.25 µg/mL. The MIC ([7]; 24 h, read-out: MIC2 (50% inhibition), isolate MMX 7424 (CASP-R, MICA-R), 24 hr) was 1 µg/mL, the MIC ([7]; 24 h, read-out: MIC2 (50% inhibition), isolate MMX 7430 (Susceptible), 24 hr) was 0.25 µg/mL and the MIC ([7]; 24 h, read-out: MIC2 (50% inhibition), isolate MMX 7445 (FLU-R, VORI-R), 24 hr) was 1 µg/mL. The MIC ([7]; 24 h, read-out: MIC0 (complete inhibition)) was 2 µg/mL, the MIC ([7]; ATCC90028, 24 h, read-out: MIC0 (complete inhibition), isolate ATCC 90028 (Susceptible), 24 hr) was 2 µg/mL and the MIC ([7]; ATCC90028, 24 h, read-out: MIC2 (50% inhibition), isolate ATCC 90028 (Susceptible), 24 hr) was 0.5 µg/mL. It also gave an MIC ([7]; ATCC204276, 24 h, read-out: MIC0 (complete inhibition), isolate ATCC 204276 (MICA-R), 24 hr) of 1 µg/mL, an MIC ([7]; ATCC204276, read-out: MIC2 (50% inhibition), isolate ATCC 204276 (MICA-R), result after 48 hr incubation (insufficient growth at 24 hr)) of 1 µg/mL and an MIC ([8]; ATCC90030, read-out: MIC0 (complete inhibition), isolate ATCC 90030 (Susceptible)) of 1 µg/mL. For the same compound, the MIC ([8]; ATCC90030, read-out: MIC2 (50% inhibition), isolate ATCC 90030 (Susceptible)) was 0.5 µg/mL, the MIC ([8]; read-out: MIC0 (complete inhibition), isolate ATCC MYA-2950 (Susceptible)) was 1 µg/mL and the MIC ([8]; read-out: MIC0 (complete inhibition), isolate MMX 7087 (Susceptible)) was 1 µg/mL. The MIC ([8]; read-out: MIC0 (complete inhibition), isolate MMX 7093 (FLU-R)) was 2 µg/mL, the MIC ([8]; read-out: MIC0 (complete inhibition), isolate MMX 7101 (FLU-R)) was 1 µg/mL and the MIC ([8]; read-out: MIC0 (complete inhibition), isolate MMX 7103 (CASP-R, MICA-R)) was 1 µg/mL. For the same compound, the MIC ([8]; read-out: MIC0 (complete inhibition), isolate MMX 7111 (Susceptible)) was 1 µg/mL, the MIC ([8]; read-out: MIC0 (complete inhibition), isolate MMX 7285 (CASP-R, MICA-R)) was 0.5 µg/mL and the MIC ([8]; read-out: MIC0 (complete inhibition), isolate MMX 7307 (CASP-R, MICA-R, FLU-R)) was 1 µg/mL. The MIC ([8]; read-out: MIC0 (complete inhibition), isolate MMX 7549 (Susceptible)) was 1 µg/mL, the MIC ([8]; read-out: MIC2 (50% inhibition), isolate ATCC MYA-2950 (Susceptible)) was 0.5 µg/mL and the MIC ([8]; read-out: MIC2 (50% inhibition), isolate MMX 7087 (Susceptible)) was 0.5 µg/mL. For the same compound, the MIC ([8]; read-out: MIC2 (50% inhibition), isolate MMX 7093 (FLU-R)) was 1 µg/mL, the MIC ([8]; read-out: MIC2 (50% inhibition), isolate MMX 7101 (FLU-R)) was 0.5 µg/mL and the MIC ([8]; read-out: MIC2 (50% inhibition), isolate MMX 7103 (CASP-R, MICA-R)) was 0.5 µg/mL. It also gave an MIC ([8]; read-out: MIC2 (50% inhibition), isolate MMX 7111 (Susceptible)) of 0.5 µg/mL, an MIC ([8]; read-out: MIC2 (50% inhibition), isolate MMX 7285 (CASP-R, MICA-R)) of 0.25 µg/mL and an MIC ([8]; read-out: MIC2 (50% inhibition), isolate MMX 7307 (CASP-R, MICA-R, FLU-R)) of 0.5 µg/mL. For the same compound, the MIC ([8]; read-out: MIC2 (50% inhibition), isolate MMX 7549 (Susceptible)) was 0.5 µg/mL, the MIC [9] was 0.5 to 2 µg/mL and the MIC [10, 16] was 0.5 µg/mL. For the same compound, the MIC [10, 17] was 0.5 µg/mL, the MIC [10, 18] was 1 µg/mL and the MIC [10, 19] was 0.5 µg/mL. It also gave an MIC [10, 20] of 0.5 µg/mL, an MIC ([1]; Escherichia coli, ATCC25922, E. coli ATCC 25922, QC organism) of 1 µg/mL and an MIC ([1]; Escherichia coli, ATCC35218, E. coli ATCC 35218, ESBL) of 1 µg/mL. The MIC ([1]; Escherichia coli, ATCC35218, E. coli ATCC 35218, QC organism (Table 102)) was 1 µg/mL, the MIC ([1]; Escherichia coli, ATCCBAA2471, E. coli ATCC BAA-2471, NDM) was 2 µg/mL and the MIC ([1]; Escherichia coli, E. coli CDC 114, ESBL/KPC) was 2 µg/mL. The MIC ([1]; Escherichia coli, E. coli CDC 118, ESBL/NDM) was 1 µg/mL, the MIC ([1]; Escherichia coli, E. coli CDC 435, NDM) was 1 µg/mL and the MIC ([1]; Escherichia coli, E. coli CDC 451, KPC) was 1 µg/mL. For the same compound, the MIC ([1]; Escherichia coli, E. coli CDC 503, ESBL/NDM) was 2 µg/mL, the MIC ([1]; Escherichia coli, E. coli MMX 5745, KPC) was 2 µg/mL and the MIC ([1]; Escherichia coli, E. coli MMX 5755, ESBL) was 2 µg/mL. For the same compound, the MIC ([1]; Escherichia coli, E. coli MMX 5756, ESBL) was 1 µg/mL, the MIC ([1]; Escherichia coli, E. coli MMX 5758, ESBL) was 1 µg/mL and the MIC ([11]; strain AGR1) was 1 µg/mL. The MIC ([11]; strain AGR14, Multi-drug resistant) was 1 µg/mL, the MIC ([11]; strain MR14, Multi-drug resistant) was 1 µg/mL and the MIC [12] was 0.5 µg/mL. The MIC ([12]; Achromobacter) was 1 µg/mL.
`C[C@@H](O)[C@H]1C(=O)N2C(C(=O)O)=C(S[C@@H]3CN[C@H](C(=O)N(C)C)C3)[C@H](C)[C@H]12` [Meropenem, reference compound] gave an MIC [10, 16] of 64 µg/mL (≈ 167 µM), an MIC [10, 17] of 64 µg/mL (≈ 167 µM) and an MIC [10, 18] of 4 µg/mL (≈ 10.4 µM). For the same compound, the MIC [10, 19] was 0.5 µg/mL (≈ 1.3 µM) and the MIC [10, 20] was 64 µg/mL (≈ 167 µM).
For `C1C[S][Bi]([S]CC[S][Bi]2[S]CC[S]2)[S]1` [BisEDT, bismuth-1,2-ethanedithiol], the “Expected MIC: goal (acceptable range)” value [13] is given as 1 (0.5-2) mcg/mL, the “MIC, CLSI QC range” value [14] is given as “(0.5-4) μg/mL” and the “MMAD of exposure aerosol” value [15] is given as 1.54 μm.

Source: patent publication US11464749B2, “Bismuth-thiol compositions and methods of use” (Microbion Corporation, priority 2018, dated 2022)
